From ChEMBL document CHEMBL1129199, “Trifluoromethyl alcohol and ketone inhibitors of metallo--lactamases” (Bioorg Med Chem Lett, 1996)

Assays:
[1] = Ratio of K+2/K of the compound
[2] = Compound was evaluated for inhibition of metallo beta lactamase from Pseudomonas aeruginosa 101
[3] = Compound was evaluated for inhibition of metallo beta lactamase from xanthomonas maltophilia ULA-511; design: species or system Stenotrophomonas maltophilia
Aeromonas hydrophila = assay: Compound was evaluated for kinetic data for the inhibition of metallo beta lactamase from Aeromonas hydrophilia AE036.
[4] = Compound was evaluated for inhibition of metallo beta lactamase from bacillus cereus 569H
[5] = Compound was evaluated for inhibition of metallo beta lactamase from Aeromonas hydrophilia AE036.; design: species or system Aeromonas hydrophila

SMILES	k+2/k [1] [M⁻¹ s⁻¹]	Ki [2] [µM]	Ki [3] [µM]	k+2 (Aeromonas hydrophila) [s⁻¹]	Ki [4] [µM]	Ki [5] [µM]
C[C@@H](NC(=O)COc1ccccc1)C(=O)C(F)(F)F	9.1	500	3	1	700	11
C[C@@H](NC(=O)COc1ccccc1)[C@@H](O)C(F)(F)F	5.25	400	35	1.1	700	217
O=C(COc1ccccc1)N[C@H](Cc1ccccc1)C(=O)C(F)(F)F					1000	
C[C@H](NC(=O)COc1ccccc1)C(=O)C(F)(F)F	9.1	300	1.5	4	300	44
O=C(COc1ccccc1)N[C@H](Cc1ccccc1)[C@@H](O)C(F)(F)F	1.9	60	> 5000	3.9	30	20
O=C(COc1ccccc1)N[C@@H](Cc1ccccc1)C(=O)C(F)(F)F	7.2	530	15	4.3	500	6
C[C@H](NC(=O)COc1ccccc1)[C@@H](O)C(F)(F)F		400	> 5000		3000	
O=C(COc1ccccc1)N[C@@H](Cc1ccccc1)[C@@H](O)C(F)(F)F	2.3	900	> 5000	4.3	1000	19
